Measured values: patent publication US20080207617A1, “Quinoline Derivatives and Quinazoline Derivatives Inhibiting Autophosphrylation of Flt3 and Medicinal Compositions Containing the Same” (KIRIN BEER KABUSHIKI KAISHA, priority 2002, published 2008)

Tests used:
MV4-11 = assay: Cell growth inhibitory test MV4-11 (WST-1); type: cell-based, human; settings: Homo sapiens, MV4-11, 72 h, MV4-11 cells, 3 days culture
Procedure: Pharmacological Test Example 2
Cell Growth Inhibitory Test
MV4-11 (ATCC number: CRL-9591) as human leukemia cells was seeded in an amount of 3×10^3 using a DMEM medium containing 10% fetal calf serum (purchased from GIBCO) in a 96-well flat bottom plate.
(§1) A solution of a test compound in dimethyl sulfoxide was added to each well and was cultured in a 5% carbon dioxide incubator for 3 days. Three days after the initiation of the culture, 10 μl of a WST-1 solution in Cell Counting Kit (purchased from Wako Pure Chemical Industries, Ltd.) was added to each well for a color reaction. After proper color development, the absorbance was measured with a microplate reader under conditions of measurement wavelength 450 nm and reference wavelength 650 nm. The growth ratio for each well was determined by presuming the absorbance without the addition of the medicament to be 100% growth ratio and the absorbance of the well without seeding of the cells to be 0% growth ratio. The concentration of the test compound was varied on several levels, the cell growth ratio for each case was determined, and the concentration of the test compound necessary for inhibiting 50% of cell growth ratio (IC50) was calculated.

MOLM13 [1] = assay: Cell growth inhibitory activity using MTT method (MOLM13); type: cell-based, human; settings: Homo sapiens, MOLM-13, 72 h, MOLM13 cells
Procedure: Pharmacological Test Example 3
Measurement of Cell Growth Inhibitory Activity Using MTT Method
Human leukemia cell line MOLM13 (subdivided from Hayashibara Biochemical Laboratories, Inc.) was cultured in an RPMI medium containing 10% fetal calf serum (purchased from Asahi Techno Glass Corporation) within a 5% carbon dioxide incubator until the cell density reached 50 to 90% of the maximum cell density. These cells were seeded into wells, containing an RPMI medium containing 10% fetal calf serum, in a 96-well flat bottom plate in an amount of […] per well. The amount of the solution of the medium in each well was brought to 100 μl, and a test compound was added thereto to 500 ng, 100 ng, 20 ng, and 4 ng per ml. After culture within an incubator for 72 hr, 10 μl of a 5 mg/ml MTT (3-(4,5-dimethylthiazol-2-yl)-2,5-diphenyl tetrazolium bromide) solution (purchased from SIGMA) was added to the medium, and a reaction was allowed to proceed for 4 hr. Thereafter, 100 μl of a 0.04 N hydrochloric acid-isopropanol solution was added to completely dissolve the resultant MTT formazan crystal. After the dissolution, absorbance at 550 nm was measured using 620 nm as a reference wavelength with a microplate reader (DIGISCAN) (It is regarded that, in the MTT method, the viable cell count is reflected, and linearity is observed in a cell count per well range of 5×10^5 to 2×10^2 cells). After 72 hr, the absorbance of only the medium free from cells was subtracted from the absorbance of the well without the addition of the test compound to determine a value which was presumed to be 100%. On the other hand, the absorbance with the addition of the compound was expressed in terms of % growth.

MOLM13 [2] = assay: Cell growth inhibitory activities on cultured human leukemia cells MOLM-13 (WST-1); type: cell-based; settings: Homo sapiens, MOLM-13, 72 h, 3 days culture
Procedure: Pharmacological Test Example 4
Cell Growth Inhibitory Activities on Cultured Human Leukemia Cells
as §1, with “Human leukemia cells MOLM13 (subdivided from Hayashibara Biochemical Laboratories, Inc.) were seeded in an amount of 3×10^3 using a DMEM medium containing 10% fetal calf serum (purchased from GIBCO) in a 96-well flat bottom plate. A solution” for “A solution”

| IC50 (MV4-11) [µM] | IC50 (MOLM13 [1]) [µM] | IC50 (MOLM13 [2]) [nM] | Structure (SMILES) |
| --- | --- | --- | --- |
| 0.023 | 0.0931 | 36 | COc1cc2nccc(Oc3ccc(NC(=O)NCCC(C)(C)C)cc3OC)c2cc1OC [Compound 5, 1-[4-(6,7-Dimethoxy-quinolin-4-yloxy)-3-methoxy-phenyl]-3-(3,3-dimethyl-butyl)-urea] |
| 0.004 | 0.0188 | 7 | COc1cc2nccc(Oc3ccc(NC(=O)NCCC4CCCCC4)cc3F)c2cc1OC [Compound 16, 1-(2-Cyclohexyl-ethyl)-3-[4-(6,7-dimethoxy-quinolin-4-yloxy)-3-fluoro-phenyl]-urea] |
| 0.017 | 0.0205 | 27 | COc1cc2nccc(Oc3ccc(NC(=O)NCCC4CCCCC4)cc3Cl)c2cc1OC [Compound 17, 1-[3-Chloro-4-(6,7-dimethoxy-quinolin-4-yloxy)-phenyl]-3-(2-cyclohexyl-ethyl)-urea] |
| 0.001 | 0.0403 | 2 | COc1cc2nccc(Oc3ccc(NC(=O)NCCC4CCCC4)cc3F)c2cc1OC [Compound 18, 1-(2-Cyclopentyl-ethyl)-3-[4-(6,7-dimethoxy-quinolin-4-yloxy)-3-fluoro-phenyl]-urea] |
| 0.012 | 0.0313 | 18 | COc1cc2nccc(Oc3ccc(NC(=O)NC4CCCCC4)cc3)c2cc1OC [Compound 26, 1-Cyclohexyl-3-[4-(6,7-dimethoxy-quinolin-4-yloxy)-phenyl]-urea] |
| 0.118 | 0.255 | 140 | COc1cc2c(Oc3ccc(NC(=O)NCCC(C)(C)C)c(Cl)c3)ccnc2cc1OCCCN1CCCC1 [Compound 45, 1-{2-Chloro-4-[6-methoxy-7-(3-pyrrolidin-1-yl-propoxy)-quinolin-4-yloxy]-phenyl}-3-(3,3-dimethyl-butyl)-urea] |
| 0.145 | 0.0768 | 123 | COc1cc2c(Oc3ccc(NC(=O)NCCC(C)(C)C)c(Cl)c3)ccnc2cc1OCCCN1CCCCC1 [Compound 46, 1-{2-Chloro-4-[6-methoxy-7-(3-piperidin-1-yl-propoxy)-quinolin-4-yloxy]-phenyl}-3-(3,3-dimethyl-butyl)-urea] |
| 0.051 | 0.135 | 60 | CCN(CC)CCCOc1cc2nccc(Oc3ccc(NC(=O)NCCC(C)(C)C)c(Cl)c3)c2cc1OC [Compound 47, 1-{2-Chloro-4-[7-(3-diethylamino-propoxy)-6-methoxy-quinolin-4-yloxy]-phenyl}-3-(3,3-dimethyl-butyl)-urea] |
| 0.004 | 0.0167 | 13 | COc1cc2c(Oc3ccc(NC(=O)NCCC(C)(C)C)cc3)ccnc2cc1OCCN1CC(C)CC(C)C1 (centres unmarked) [Compound 53, 1-(3,3-Dimethyl-butyl)-3-(4-{7-[2-(3,5-dimethyl-piperidin-1-yl)-ethoxy]-6-methoxy-quinolin-4-yloxy}-phenyl)-urea] |
| 0.003 | 0.0197 | 10 | COc1cc2c(Oc3ccc(NC(=O)NCCC(C)(C)C)cc3)ccnc2cc1OCCCN1CC(C)CC(C)C1 (centres unmarked) [Compound 54, 1-(3,3-Dimethyl-butyl)-3-(4-{7-[3-(3,5-dimethyl-piperidin-1-yl)-propoxy]-6-methoxy-quinolin-4-yloxy}-phenyl)-urea] |
| 0.006 | 0.0368 | 25 | COc1cc2c(Oc3ccc(NC(=O)NC4CCCC(C)(C)C4)cc3F)ccnc2cc1OCCN1CCCCC1 (centres unmarked) [Compound 55, 1-(3,3-Dimethyl-cyclohexyl)-3-{3-fluoro-4-[6-methoxy-7-(2-piperidin-1-yl-ethoxy)-quinolin-4-yloxy]-phenyl}-urea] |
| 0.014 | 0.0113 | 26 | COc1cc2c(Oc3ccc(NC(=O)NC4CC(C)CC(C)(C)C4)cc3F)ccnc2cc1OCCN1CCCCC1 (centres unmarked) [Compound 56, 1-{3-Fluoro-4-[6-methoxy-7-(2-piperidin-1-yl-ethoxy)-quinolin-4-yloxy]-phenyl}-3-(3,3,5-trimethyl-cyclohexyl)-urea] |
| 0.019 | 0.12 | 29 | COc1cc2c(Oc3ccc(NC(=O)NC4CC(C)CC(C)(C)C4)c(F)c3)ccnc2cc1OCCN1CCCCC1 (centres unmarked) [Compound 57, 1-{2-Fluoro-4-[6-methoxy-7-(2-piperidin-1-yl-ethoxy)-quinolin-4-yloxy]-phenyl}-3-(3,3,5-trimethyl-cyclohexyl)-urea] |
| 0.004 | 0.0516 | 17 | COc1cc2c(Oc3ccc(NC(=O)NCCC4CCCCC4)cc3F)ccnc2cc1OCCN1CCCCC1 [Compound 58, 1-(2-Cyclohexyl-ethyl)-3-{3-fluoro-4-[6-methoxy-7-(2-piperidin-1-yl-ethoxy)-quinolin-4-yloxy]-phenyl}-urea] |
| 0.033 | 0.108 | 59 | COc1cc2c(Oc3ccc(NC(=O)NCCC(C)(C)C)c(F)c3)ccnc2cc1OCCN1C(C)CCCC1C (centres unmarked) [Compound 60, 1-(3,3-Dimethyl-butyl)-3-(4-{7-[2-(2,6-dimethyl-piperidin-1-yl)-ethoxy]-6-methoxy-quinolin-4-yloxy}-2-fluoro-phenyl)-urea] |
| 0.057 | – | 138 | COc1cc2c(Oc3ccc(NC(=O)NCCC(C)(C)C)c(F)c3)ccnc2cc1OCCN1C(C)(C)CCCC1(C)C [Compound 61, 1-(3,3-Dimethyl-butyl)-3-(2-fluoro-4-{6-methoxy-7-[2-(2,2,6,6-tetramethyl-piperidin-1-yl)-ethoxy]-quinolin-4-yloxy}-phenyl)-urea] |
| 0.004 | 0.0265 | 7 | COc1cc2c(Oc3ccc(NC(=O)NCCC(C)(C)C)cc3F)ccnc2cc1OCCN1C(C)CCCC1C (centres unmarked) [Compound 62, 1-(3,3-Dimethyl-butyl)-3-(4-{7-[2-(2,6-dimethyl-piperidin-1-yl)-ethoxy]-6-methoxy-quinolin-4-yloxy}-3-fluoro-phenyl)-urea] |
| 0.01 | 0.0478 | 22 | COc1cc2c(Oc3ccc(NC(=O)NCCC(C)(C)CO)c(F)c3)ccnc2cc1OCCN1CCCCC1 [Compound 63, 1-{2-Fluoro-4-[6-methoxy-7-(2-piperidin-1-yl-ethoxy)-quinolin-4-yloxy]-phenyl}-3-(4-hydroxy-3,3-dimethyl-butyl)-urea] |
| 0.013 | 0.195 | 19 | COc1cc2c(Oc3ccc(NC(=O)NCCC4CCCCC4)c(F)c3)ccnc2cc1OCCN1CCCCC1 [Compound 64, 1-(2-Cyclohexyl-ethyl)-3-{2-fluoro-4-[6-methoxy-7-(2-piperidin-1-yl-ethoxy)-quinolin-4-yloxy]-phenyl}-urea] |
| < 0.001 | – | < 1 | COc1cc2c(Oc3ccc(NC(=O)NCCC(C)(C)C)cc3)ccnc2cc1OCCN1CCOCC1 [Compound 66, 1-(3,3-Dimethyl-butyl)-3-{4-[6-methoxy-7-(2-morpholin-4-yl-ethoxy)-quinolin-4-yloxy]-phenyl}-urea] |
| 0.015 | – | 27 | COc1cc2c(Oc3ccc(NC(=O)NCCC4CCCCCC4)c(F)c3)ccnc2cc1OCCN1CC(C)OC(C)C1 (centres unmarked) [Compound 71, 1-(2-Cycloheptyl-ethyl)-3-(4-{7-[2-(2,6-dimethyl-morpholin-4-yl)-ethoxy]-6-methoxy-quinolin-4-yloxy}-2-fluoro-phenyl)-urea] |
| 0.255 | – | 244 | COc1cc2c(Oc3ccc(NC(=O)NCCC(C)(C)C)c(Cl)c3)ccnc2cc1OCCN1CCCCCC1 [Compound 74, 1-{4-[7-(2-Azepan-1-yl-ethoxy)-6-methoxy-quinolin-4-yloxy]-2-chloro-phenyl}-3-(3,3-dimethyl-butyl)-urea] |
